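The compound was tested at five concentrations on cells cultured in 96-well plates, with a 48-hour exposure period. Here, GI50 denotes the concentration required for 50% inhibition of growth.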 Active and inactive are the calls of the source. Cut-off read from the data, not from the text of the source: active = GI50 up to about 1.1 µM and inactive = higher.
Assays:
Assay in all cases: NCI-60 cell line screen, 48 h
UACC-257 = system: UACC-257
CAKI-1 = system: CAKI-1
LOX IMVI = system: LOX IMVI
NCI-H226 = system: NCI-H226
K562 = system: K562
A549 = system: A549
SK-MEL-28 = system: SK-MEL-28
MOLT-4 = system: MOLT-4
SK-MEL-2 = system: SK-MEL-2
SNB-75 = system: SNB-75
A498 = system: A498
HOP-62 = system: HOP-62
IGROV-1 = system: IGROV-1
SK-MEL-5 = system: SK-MEL-5
COLO 205 = system: COLO 205
SF-268 = system: SF-268
Hs-578T = system: Hs-578T
MDA-N = system: MDA-N
SF-295 = system: SF-295
SF-539 = system: SF-539

Measured: GI50

CCOC(=O)c1cc2cc(C)cc(C(=O)c3ccc([N+](=O)[O-])cc3)c2[nH]1
inactive: UACC-257 > 100 µM | CAKI-1 > 100 µM | LOX IMVI > 100 µM | NCI-H226 > 100 µM | K562 > 100 µM | A549 > 100 µM | SK-MEL-28 > 100 µM | MOLT-4 > 100 µM | SK-MEL-2 > 100 µM | SNB-75 51.6 µM | A498 > 100 µM | HOP-62 33.4 µM | IGROV-1 > 100 µM | SK-MEL-5 > 100 µM | COLO 205 > 100 µM | SF-268 > 100 µM | Hs-578T 41.2 µM | MDA-N > 100 µM | SF-295 > 100 µM | SF-539 > 100 µM

CCOC(=O)NN(C(=O)OCC)c1c(C)cc(C)cc1C
inactive: UACC-257 > 100 µM | CAKI-1 > 100 µM | LOX IMVI 95.3 µM | NCI-H226 > 100 µM | K562 > 100 µM | A549 > 100 µM | SK-MEL-28 > 100 µM | MOLT-4 > 100 µM | SK-MEL-2 > 100 µM | SNB-75 > 100 µM | A498 > 100 µM | IGROV-1 64.4 µM | SK-MEL-5 > 100 µM | COLO 205 > 100 µM | SF-268 > 100 µM | Hs-578T > 100 µM | MDA-N > 100 µM | SF-539 > 100 µM

CCCN(CCCCC(NC(C)=O)C(=O)NCc1ccccc1)C(=O)N(CCCl)N=O (stereo unspecified)
inactive: UACC-257 > 100 µM | CAKI-1 > 79.8 µM | LOX IMVI 22.9 µM | NCI-H226 > 77.8 µM | K562 65.2 µM | A549 32.3 µM | SK-MEL-28 > 100 µM | MOLT-4 36.3 µM | SK-MEL-2 > 100 µM | SNB-75 27.1 µM | A498 > 86.9 µM | HOP-62 25.5 µM | IGROV-1 > 92.3 µM | SK-MEL-5 > 77.8 µM | COLO 205 > 90.2 µM | SF-268 9.46 µM | Hs-578T 42.1 µM | MDA-N > 100 µM | SF-295 20.9 µM | SF-539 8.55 µM

N#Cc1nc(C#N)n(S(=O)(=O)c2ccccc2)c1NS(=O)(=O)c1ccccc1
inactive: UACC-257 > 100 µM | CAKI-1 > 37.8 µM | LOX IMVI > 100 µM | NCI-H226 > 100 µM | K562 > 100 µM | A549 > 100 µM | SK-MEL-28 > 100 µM | MOLT-4 > 100 µM | SK-MEL-2 > 31.6 µM | SNB-75 > 65.3 µM | A498 > 100 µM | HOP-62 > 100 µM | IGROV-1 > 100 µM | SK-MEL-5 > 100 µM | COLO 205 > 100 µM | SF-268 > 100 µM | Hs-578T > 100 µM | MDA-N > 100 µM | SF-295 > 100 µM | SF-539 > 100 µM

CCN(CC)C1Oc2cc3c(cc2C(c2ccc(OC)cc2)C1C)OCO3 (stereo unspecified)
inactive: UACC-257 15.9 µM | CAKI-1 24.9 µM | LOX IMVI 16.1 µM | NCI-H226 23 µM | K562 19.1 µM | A549 22.6 µM | SK-MEL-28 20.4 µM | MOLT-4 17.6 µM | SK-MEL-2 17.6 µM | SNB-75 20.3 µM | A498 19.7 µM | HOP-62 24.8 µM | IGROV-1 29.5 µM | SK-MEL-5 17.3 µM | COLO 205 17.6 µM | SF-268 17.3 µM | Hs-578T 18.7 µM | MDA-N 17.5 µM | SF-295 21.7 µM | SF-539 20.2 µM

C(=C\C(SCc1ccccc1)SCc1ccccc1)/c1ccccc1
inactive: UACC-257 > 10 µM | CAKI-1 > 10 µM | LOX IMVI > 10 µM | NCI-H226 > 10 µM | K562 > 10 µM | A549 > 10 µM | SK-MEL-28 > 10 µM | MOLT-4 > 10 µM | SK-MEL-2 > 10 µM | SNB-75 > 10 µM | A498 > 10 µM | HOP-62 > 10 µM | IGROV-1 > 10 µM | SK-MEL-5 > 10 µM | COLO 205 > 10 µM | SF-268 > 10 µM | Hs-578T > 10 µM | MDA-N > 10 µM | SF-295 > 10 µM | SF-539 > 10 µM

CCCNC(=O)N1CC(CN2CCN(c3ccccc3)CC2)O/C1=N/C(=O)Nc1ccccc1 (stereo unspecified)
inactive: UACC-257 46.8 µM | CAKI-1 > 100 µM | LOX IMVI 67.8 µM | NCI-H226 2.09 µM | K562 > 100 µM | A549 63.4 µM | SK-MEL-28 > 100 µM | MOLT-4 > 100 µM | SK-MEL-2 45.3 µM | SNB-75 76.2 µM | A498 > 100 µM | HOP-62 > 100 µM | IGROV-1 > 100 µM | SK-MEL-5 40.8 µM | COLO 205 33.3 µM | SF-268 > 100 µM | Hs-578T > 100 µM | MDA-N > 100 µM | SF-295 > 100 µM

O=C(CN1CCOCC1)NC1=Nc2ncccc2C(=O)NN1
inactive: UACC-257 > 10 µM | LOX IMVI > 10 µM | NCI-H226 > 10 µM | K562 > 10 µM | A549 > 10 µM | SK-MEL-28 > 10 µM | MOLT-4 > 10 µM | SK-MEL-2 > 10 µM | SNB-75 > 10 µM | A498 > 10 µM | HOP-62 > 10 µM | IGROV-1 > 10 µM | SK-MEL-5 > 10 µM | SF-268 > 10 µM | Hs-578T > 10 µM | MDA-N > 10 µM | SF-295 > 10 µM | SF-539 > 10 µM

Cc1cc(S(=O)(=O)/N=C(\NN)Nc2ccc(Cl)cc2)c(S)cc1Cl
inactive: UACC-257 19.3 µM | CAKI-1 19.9 µM | LOX IMVI 13.9 µM | NCI-H226 16 µM | K562 2.13 µM | A549 11 µM | SK-MEL-28 21.6 µM | MOLT-4 2.75 µM | SK-MEL-2 19.2 µM | SNB-75 6.49 µM | A498 17.1 µM | HOP-62 10.8 µM | IGROV-1 3.54 µM | SK-MEL-5 4.94 µM | COLO 205 13.4 µM | SF-268 15.6 µM | Hs-578T 1.17 µM | MDA-N 8.87 µM | SF-539 14.1 µM

CC(=O)OCC1OC(NC(=S)Nn2c(=O)[nH]c3ccccc3c2=O)C(OC(C)=O)C(OC(C)=O)C1OC(C)=O (stereo unspecified)
inactive: UACC-257 > 100 µM | CAKI-1 > 100 µM | LOX IMVI > 100 µM | NCI-H226 > 100 µM | A549 > 100 µM | SK-MEL-28 > 100 µM | MOLT-4 > 100 µM | SK-MEL-2 > 100 µM | SNB-75 > 100 µM | A498 > 100 µM | HOP-62 > 100 µM | IGROV-1 > 100 µM | SK-MEL-5 > 100 µM | COLO 205 > 100 µM | SF-268 > 100 µM | Hs-578T > 100 µM | MDA-N > 100 µM | SF-295 > 100 µM | SF-539 > 100 µM

O=C1Oc2ccccc2C1C/C(=N\Nc1ccccc1)c1ccccc1O (stereo unspecified)
inactive: UACC-257 28.8 µM | CAKI-1 25.6 µM | LOX IMVI 11.5 µM | NCI-H226 28.8 µM | A549 50 µM | SK-MEL-28 33.7 µM | MOLT-4 29.9 µM | SK-MEL-2 35.5 µM | SNB-75 56.8 µM | A498 33.7 µM | HOP-62 53.3 µM | IGROV-1 17 µM | SK-MEL-5 33.9 µM | COLO 205 15 µM | SF-268 25.7 µM | Hs-578T 74.5 µM | MDA-N 44.5 µM | SF-295 33.7 µM | SF-539 53 µM

O=C(O[C@H]1CCN2C[C@H]3C[C@H](CN4C(=O)CCC[C@H]34)[C@@H]2C1)c1ccc(O)cc1
inactive: UACC-257 > 100 µM | CAKI-1 > 100 µM | LOX IMVI > 100 µM | NCI-H226 > 100 µM | K562 > 100 µM | A549 > 100 µM | SK-MEL-28 > 100 µM | SK-MEL-2 > 100 µM | SNB-75 > 100 µM | A498 > 100 µM | HOP-62 > 100 µM | IGROV-1 > 100 µM | COLO 205 > 100 µM | SF-268 > 100 µM | Hs-578T > 100 µM | MDA-N > 100 µM | SF-295 > 100 µM | SF-539 > 100 µM

CCCCCCCCCCCCC(=O)NCC(=O)NC(Cc1ccccc1)C(=O)Oc1ccc([N+](=O)[O-])cc1 (stereo unspecified)
inactive: UACC-257 > 100 µM | CAKI-1 > 100 µM | LOX IMVI 36.2 µM | NCI-H226 33.5 µM | A549 > 100 µM | SK-MEL-2 > 100 µM | SNB-75 18.5 µM | A498 > 100 µM | HOP-62 > 100 µM | IGROV-1 87.9 µM | SK-MEL-5 72.4 µM | COLO 205 16.7 µM | SF-268 31.9 µM | Hs-578T 75.3 µM | MDA-N > 100 µM | SF-295 50.4 µM | SF-539 91.8 µM

CCOC(=O)C1(N)CCc2[nH][nH]c(=O)c2C1 (stereo unspecified)
inactive: UACC-257 > 100 µM | CAKI-1 > 100 µM | LOX IMVI > 100 µM | NCI-H226 > 100 µM | K562 > 100 µM | A549 > 100 µM | SK-MEL-28 > 100 µM | MOLT-4 > 100 µM | SK-MEL-2 > 100 µM | SNB-75 > 100 µM | A498 > 100 µM | HOP-62 > 100 µM | IGROV-1 > 100 µM | SK-MEL-5 > 100 µM | COLO 205 > 100 µM | Hs-578T > 100 µM | MDA-N > 100 µM | SF-295 > 100 µM | SF-539 > 100 µM

Source: ChEMBL document CHEMBL1201862, “PubChem BioAssay data set” (2004)
